# Article PMC7255801, “Disease-associated mutations in the human TRPM3 render the channel overactive via two distinct mechanisms” (eLife, 2020)
# Key:
# Type in all cases: cell-based
# [1] = biological target: T1, hTRPM3α2 P1092Q (Homo sapiens, UniProt Q9HCF6, P1115Q); test: Intracellular Ca2+ assay (GCaMP6f) in 96-well plates, HEK293 cells, P1092Q mutant; details: very high basal Ca2+ levels
# T1 construct: host or cells: HEK293
# Description: (§1) Intracellular Ca^2+ measurements were performed using a Flexstation-3 96‐well plate reader with rapid well injection (Molecular Devices) as described earlier ([Hughes et al., 2019]) with some modifications. Briefly Human Embryonic Kidney 293 (HEK293) cells were purchased from American Type Culture Collection (ATCC), Manassas, VA, (catalogue number CRL-1573), RRID:CVCL_0045; cell identity was verified by STR analysis by ATCC. HEK293 cells were cultured in MEM supplemented with 10% FBS and 100 IU/ml penicillin plus 100 µg/ml streptomycin in 5% CO2 at 37°C. Additional cell authentication was not performed, but passage number of the cells was monitored, and cells were used up to passage number 25–30 from purchase, when a new batch of cells was thawed with low passage number; cells were tested for the lack of mycoplasma infection. HEK293 cells were transfected with hTRPM3α2-GFP, or its mutants (200 ng) and GCaMP6 (1 μg) using the Effectene reagent (Qiagen). […] GCaMP6 signal was measured at excitation wavelengths 485 nm and fluorescence emission was detected at 525 nm. Sampling interval was 0.86 s and four parallel reads were performed for each condition. […] For measurements at 37°C the MEM medium used to culture the cells was replaced with the measurement solution preheated to 37°C, and the plate was placed in the plate reader warmed to 37°C using its built-in temperature controller.
# [2] = biological target: T2, hTRPM3α2 V992M (Homo sapiens, UniProt Q9HCF6, V1015M); test: Intracellular Ca2+ assay (GCaMP6f) in 96-well plates, HEK293 cells, V992M mutant; details: very high basal Ca2+ levels
# T2 construct: host or cells: HEK293
# Description: as §1
# [3] = biological target: T3, human M2 muscarinic receptors co-expressed with wild-type hTRPM3_1325 (Homo sapiens, UniProt P08172); test: M2 muscarinic receptor inhibition of TRPM3 currents, oocytes, wild type channel; details: read-out: Inhibition of TRPM3 currents induced by 50 μM PregS
# T3 construct: expressed in transfected cells; host or cells: Xenopus laevis oocytes (cRNA injection)
# T3 sequence (P08172 1-466): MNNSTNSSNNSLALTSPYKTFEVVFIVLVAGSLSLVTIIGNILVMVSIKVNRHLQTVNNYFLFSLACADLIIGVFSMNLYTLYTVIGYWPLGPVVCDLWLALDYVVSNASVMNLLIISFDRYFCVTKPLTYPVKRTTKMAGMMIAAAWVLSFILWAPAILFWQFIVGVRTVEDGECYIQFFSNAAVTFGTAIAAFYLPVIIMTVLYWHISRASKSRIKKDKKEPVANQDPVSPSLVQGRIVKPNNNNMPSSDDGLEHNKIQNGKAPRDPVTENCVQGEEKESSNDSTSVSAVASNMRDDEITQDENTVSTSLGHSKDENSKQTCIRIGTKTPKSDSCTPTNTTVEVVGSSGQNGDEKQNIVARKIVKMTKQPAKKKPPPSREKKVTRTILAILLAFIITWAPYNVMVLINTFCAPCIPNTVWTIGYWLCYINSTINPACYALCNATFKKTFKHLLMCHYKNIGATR
# Description: (§2) Xenopus laevis oocytes were prepared as described earlier ([Badheka et al., 2015]). All animal procedures were approved by the Institutional Animal Care and Use Committee at Rutgers New Jersey Medical School. In brief, frogs were anesthetized in 0.25% ethyl 3-aminobenzoate methanesulfonate solution (MS222; Sigma-Aldrich); bags of ovaries were removed surgically from the anesthetized frogs. Individual oocytes were obtained by overnight digestion at 16°C in 0.2–0.3 mg/ml type 1A collagenase (Sigma-Aldrich), dissolved in a solution containing 82.5 mM NaCl, 2 mM KCl, 1 mM MgCl2, and […] HEPES, pH 7.4 (OR2 solution). The next day the collagenase containing solution was discarded and the oocytes were washed multiple times with OR2 solution. The oocytes were maintained in OR2 solution supplemented with 1.8 mM CaCl2, 100 IU/ml penicillin, and 100 μg/ml streptomycin at 16°C. cRNA was transcribed from the linearized human TRPM3 (hTRPM3) cDNA clone ([Grimm et al., 2003]), or its mutants in the pGEMSH vector using the mMessage mMachine kit (Thermo Fisher Scientific). cRNA (40 ng) was microinjected into individual oocytes, using a nanoliter-injector system (Warner Instruments). For combined injection of wild-type and mutant TRPM3 for Figures 4E–G, […] total cRNA was injected in a 1:1 ratio. […]
# [4] = biological target: T4, human M2 muscarinic receptors co-expressed with hTRPM3_1325 V990M (Homo sapiens, UniProt P08172); test: M2 muscarinic receptor inhibition of TRPM3 currents, oocytes, V990M mutant; details: 5 μM ACh, 100 mV
# T4 construct: expressed in transfected cells; host or cells: Xenopus laevis oocytes (cRNA injection)
# T4 sequence (P08172 1-466): T3 sequence (P08172 1-466)
# Description: as §2
# T1 sequence (Q9HCF6 1-1709 isoform Q9HCF6-5 P1092Q): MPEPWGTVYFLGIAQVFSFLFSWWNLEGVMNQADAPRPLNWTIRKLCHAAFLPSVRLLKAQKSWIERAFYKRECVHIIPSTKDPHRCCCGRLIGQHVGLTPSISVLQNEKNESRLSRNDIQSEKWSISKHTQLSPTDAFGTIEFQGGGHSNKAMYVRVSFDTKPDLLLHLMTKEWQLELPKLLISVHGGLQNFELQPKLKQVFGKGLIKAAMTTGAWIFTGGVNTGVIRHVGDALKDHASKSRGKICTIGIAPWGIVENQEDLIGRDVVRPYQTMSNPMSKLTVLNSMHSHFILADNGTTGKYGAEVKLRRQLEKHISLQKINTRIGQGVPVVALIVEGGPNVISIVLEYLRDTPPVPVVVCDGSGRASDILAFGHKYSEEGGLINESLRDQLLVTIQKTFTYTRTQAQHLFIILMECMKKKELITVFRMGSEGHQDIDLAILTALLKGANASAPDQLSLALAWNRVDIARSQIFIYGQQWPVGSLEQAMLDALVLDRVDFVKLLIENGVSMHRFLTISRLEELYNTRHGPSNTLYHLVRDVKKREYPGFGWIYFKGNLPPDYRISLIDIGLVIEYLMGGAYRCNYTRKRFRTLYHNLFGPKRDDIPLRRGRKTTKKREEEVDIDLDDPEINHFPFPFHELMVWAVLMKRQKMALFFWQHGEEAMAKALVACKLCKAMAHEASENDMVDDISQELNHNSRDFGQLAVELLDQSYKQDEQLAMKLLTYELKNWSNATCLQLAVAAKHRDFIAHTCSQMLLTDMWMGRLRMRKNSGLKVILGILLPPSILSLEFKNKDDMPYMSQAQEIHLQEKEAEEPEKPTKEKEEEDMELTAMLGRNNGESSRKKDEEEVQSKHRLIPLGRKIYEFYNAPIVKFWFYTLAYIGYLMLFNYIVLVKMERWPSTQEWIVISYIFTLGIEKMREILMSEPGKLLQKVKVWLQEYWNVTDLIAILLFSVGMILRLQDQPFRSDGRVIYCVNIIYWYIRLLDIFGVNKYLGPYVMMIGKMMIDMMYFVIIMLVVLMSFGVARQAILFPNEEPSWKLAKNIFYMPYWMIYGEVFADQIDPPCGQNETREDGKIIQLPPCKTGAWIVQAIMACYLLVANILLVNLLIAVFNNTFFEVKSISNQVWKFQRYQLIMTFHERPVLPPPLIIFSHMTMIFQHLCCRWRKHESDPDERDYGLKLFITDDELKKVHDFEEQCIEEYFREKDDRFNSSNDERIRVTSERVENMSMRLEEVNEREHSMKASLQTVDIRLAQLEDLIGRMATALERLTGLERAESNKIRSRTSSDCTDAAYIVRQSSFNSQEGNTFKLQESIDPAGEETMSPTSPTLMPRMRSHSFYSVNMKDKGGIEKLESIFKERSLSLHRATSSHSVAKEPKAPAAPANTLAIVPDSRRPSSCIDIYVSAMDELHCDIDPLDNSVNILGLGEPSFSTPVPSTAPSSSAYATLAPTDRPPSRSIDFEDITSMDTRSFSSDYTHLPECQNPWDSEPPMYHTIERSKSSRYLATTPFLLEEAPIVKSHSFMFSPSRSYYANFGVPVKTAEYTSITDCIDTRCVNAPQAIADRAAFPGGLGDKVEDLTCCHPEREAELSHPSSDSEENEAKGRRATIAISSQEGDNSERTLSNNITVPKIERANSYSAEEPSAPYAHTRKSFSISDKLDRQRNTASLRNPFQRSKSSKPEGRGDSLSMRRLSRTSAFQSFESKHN
# T2 sequence (Q9HCF6 1-1709 isoform Q9HCF6-5 V992M): as the sequence (Q9HCF6 1-1709 isoform Q9HCF6-5 P1092Q) above, with V992M, Q1092P counted along it
Molecule,Ca2+ response to agonist at 37°C [1],Ca2+ response to agonist at 37°C [2],inhibition at 5 µM [3] [%],Inhibition of TRPM3 currents induced by 50 μM PregS [4]
pregnenolone sulfate [PregS],not further increased,not further increased,,
"CC(=O)OCC[N+](C)(C)C [ACh, acetylcholine]",,,~50,essentially not inhibited
